Assay results published in patent publication EP1634598A1, “Use of piperazine derivatives and analogues for the manufacture of a medicament for the prophylaxis and/or treatment of disorders of food ingestion” (LABORATORIOS DEL DR. ESTEVE, S.A., priority 2004, dated 2006).

What was measured:
[1] = test system: a selection of other relevant receptors; details: according to US2003/0171347A1, page 7, table2 and page 8, table 3; cited from earlier work
[2] = test system: Obese Rats (DIO); assay: Chronical treatment of obese rats (DIO); type: in vivo; details: 50 mg/Kg i.p., one injection per day for 9 days, followed for 10 more days, compared to Saline, data only in Figures 1 to 4
Description: Obese Rats (DIO) were treated for 9 days intraperitoneally (i.p.) one injection per day with Saline, with BD-1063 at 50 mg/Kg and PRE-084 at 25 mg /Kg, a well known […]. During that time each day and at some points during the following 10 days the weight giving the difference in weight (referring to the day of starting the treatment) was determined, as were the blood glucose levels, blood level of cholesterol, blood level of Triglycerides (TG).

SMILES	binding to a selection of other relevant receptors [1]	effect on the weight (in weight difference), blood glucose levels, blood level of cholesterol, blood level of Triglycerides (TG) [2]
CN(C)CCN(C)CCc1ccc(Cl)c(Cl)c1 [BD-1047, N1-(3,4-dichlorophenethyl)-N1,N2,N2-trimethylethane-1,2-diamine]	no or only slight binding	–
CN1CCN(CCc2ccc(Cl)c(Cl)c2)CC1 [BD-1063, 1-(3,4-dichlorophenethyl)-4-methylpiperazine]	no or only slight binding	highly effective
